In assay [1] the test system is A549 cell lines (lung cancer cell lines). The experiment in a line: Oxygen Consumption Rate (OCR) of cells, corrected for cell viability (Cyquant). Format: cell-based. As to conditions: Homo sapiens; A549 cells, 24 h drug treatment, OCR value reflecting cell viability; read-out: OCR IC50. The protocol: The compounds synthesized by the methods disclosed in the Examples of the present invention have been measured on oxygen consumption rate and extracellular oxidation by the methods disclosed in the Test Examples below.
3×10^3 cells from A549 cell lines (purchased from ATCC-American Type Culture Collection), which are lung cancer cell lines, were placed on XF96 cell culture plates using RPMI1640 medium, and cultured at 37° C. in a 5% CO2 condition for 16 hours or more for attachment.
After 16 hours, the cells were treated with the drug at six different concentrations between 0 μM and 20 μM. After 24 hours, the existing medium was removed, and XF assay medium (15 mM D-Glucose, 15 mM sodium pyruvate, 4 mM L-Glutamine, pH 7.4) was added. The cells were retreated with the drug, and additionally cultured in Prep station at 37° C. in a non-CO2 condition for 1 hour. During the one-hour culture in the Prep station, a sensor cartridge was placed and calibrated for 20 minutes, and a plate with cells was placed to analyze the OCR. After the analysis was completed, XF96 plate was measured for cell viability using Cyquant assay, which measures the amount of intracellular DNA, in the following method. XF assay medium and the drug were removed, and the cells were placed in a cryogenic refrigerator (−80° C.) for at least 4 hours to be frozen. After the plate was made to be at room temperature, a solution where a lysis buffer and fluorescent GR dye were mixed was placed by 200 μL per well. After 20-minute reaction at room temperature, […] was measured between […] to calculate cell viability. A measured value of a well untreated with the drug was converted to 100% by reflecting cell viability to the OCR value. Concentration of a drug which inhibits the OCR value reflecting cell viability by 50% was calculated.

For the next assay, the system named is SK-MEL-28 cells. The assay is described as follows: Inhibitory effect of cancer cell proliferation, MTT. Format: cell-based. The conditions noted are these: Homo sapiens, SK-MEL-28, 72 hours, MTT. As to the method: The compounds prepared in the above Examples were evaluated for the inhibitory effect of cancer cell proliferation according to the method described in the following Test Example.
SK-MEL-28 cells derived from human melanoma were used, and the concentration (cell growth inhibitory concentration, IC50) at which cell growth was inhibited to 50% was measured using MTT reagent (3-(4,5-dimethylthiazole-2-yl)-2,5-[…] bromide) to confirm the inhibitory effect of cancer cell proliferation of the drugs synthesized in Examples 1 to 84.
First, SK-MEL-28 cells were cultured in 96-well plates at a cell number of about 1,250 in RPMI-1640 medium containing 11.1 mM glucose and 10% calf blood serum or 0.75 mM glucose and 10% calf blood serum, and were cultured for 16 hours. […] After treatment of the compound, MTT was added to the culture medium to confirm living cells and further cultured for 2 hours. The resulting formazane crystal was dissolved using dimethyl sulfoxide, and the absorbance of the solution was measured at 555 nm. After culturing for 72 hours, the number of viable cells in the well plate treated with the compounds synthesized in the Examples relative to the number of cells cultured in the well plate without treatment of the compounds was expressed as cell viability (%) according to each treatment concentration. By using this, a cell viability curve graph was prepared, and the inhibitory effect of cancer cell proliferation was confirmed by calculating the concentration of the compound whose growth was inhibited to 50% (IC50).

Where [2] appears, read: 0.75 mM glucose, read-out: SK-MEL-28 0.75 mM glucose Cell viability (IC50 μM).
Setting [3] is: 11.1 mM glucose, read-out: SK-MEL-28 11.1 mM glucose Cell viability (IC50 μM).

Data on 31 compounds can be found in patent publication US20170305861A1, “HETEROARYL COMPOUNDS COMPRISING NITROGEN AND USE THEREOF” (ImmunoMet Therapeutics, Inc, priority 2016, published 2017).

By IC50 is commonly meant the concentration at which inhibition is half-maximal.

Structures are written as SMILES. Read-outs that look alike come from different tables or passages of the source.

On to `CNc1cc[n+](Cc2ccccc2)cc1` [Example 34, 1-Benzyl-4-(methylamino)pyridinium chloride], for which the IC50 in assay [1] is 1.1 µM; in the assay on SK-MEL-28 cells (setting [2]), 7.9 µM; in the assay on SK-MEL-28 cells (setting [3]) it was 101 µM.
Turning to `Nc1cc[n+](Cc2ccc(Cl)c(Cl)c2)c(F)c1` [Example 35, 4-Amino-1-(3,4-dichlorobenzyl)-2-fluoropyridinium chloride], the IC50 in assay [1] stood at 0.5 µM; with SK-MEL-28 cells (setting [2]), 5 µM; in the assay on SK-MEL-28 cells (setting [3]), 7.5 µM.
On to `Nc1cc[n+](Cc2ccc(Cl)c(Cl)c2)cc1` [Example 36, 4-Amino-1-(3,4-dichlorobenzyl)pyridinium chloride], for which the IC50 came to 0.7 µM in assay [1], 2.8 µM in the assay with SK-MEL-28 cells (setting [2]) and 13.1 µM in the assay with SK-MEL-28 cells (setting [3]).
For `CNc1cc[n+](Cc2ccc(Cl)c(Cl)c2)cc1` [Example 37, 1-(3,4-Dichlorobenzyl)-4-(methylamino)pyridinium chloride], the figures for the IC50 (in assay [1]; in the assay on SK-MEL-28 cells (setting [2]); in the assay with SK-MEL-28 cells (setting [3])) were 1.1 µM, 1.5 µM and 10.8 µM, respectively.
For `CN(C)c1cc[n+](Cc2ccc(Cl)c(Cl)c2)cc1` [Example 38, 1-(3,4-Dichlorobenzyl)-4-(dimethylamino)pyridinium chloride], the IC50 in assay [1] was 1.1 µM; in the assay on SK-MEL-28 cells (setting [2]), 1.5 µM; in the assay with SK-MEL-28 cells (setting [3]), 11.7 µM.
As for `Nc1cc[n+](CC2CC2)c(F)c1` [Example 39, 4-Amino-1-(cyclopropylmethyl)-2-fluoropyridinium chloride], the figures for the half-maximal inhibitory concentration (IC50) (in assay [1]; with SK-MEL-28 cells (setting [2]); in the assay with SK-MEL-28 cells (setting [3])) were 2.7 µM, 45.3 µM and 76.5 µM, respectively.
Turning to `Nc1cc[n+](CCC2CCCCC2)c(N)c1` [Example 40, 2,4-Diamino-1-(2-cyclohexylethyl)pyridinium bromide], the IC50 in assay [1] is 0.9 µM; in the assay on SK-MEL-28 cells (setting [2]), 7.5 µM; in the assay on SK-MEL-28 cells (setting [3]), 30.6 µM.
`CNc1cc[n+](CC2CC2)cc1` [Example 41, 1-(Cyclopropylmethyl)-4-(methylamino)pyridinium chloride]: the IC50 in assay [1] was determined as 2.7 µM; in the assay with SK-MEL-28 cells (setting [2]) it was 35.1 µM; in the assay with SK-MEL-28 cells (setting [3]), 234 µM.
`CN(C)c1cc[n+](CC2CC2)cc1` [Example 42, 1-(Cyclopropylmethyl)-4-(dimethylamino)pyridinium chloride]: the half-inhibitory concentration (IC50) was 1.5 µM in assay [1], 35 µM with SK-MEL-28 cells (setting [2]) and 199 µM with SK-MEL-28 cells (setting [3]).
For the compound `Cc1c[n+](Cc2ccccc2)ccc1N` [Example 43, 4-Amino-3-methyl-1-benzylpyridinium chloride], the figures for the IC50 (in assay [1]; in the assay on SK-MEL-28 cells (setting [2]); with SK-MEL-28 cells (setting [3])) were 0.9 µM, 14.4 µM and 45.5 µM, respectively.
Regarding `Cc1c[n+](CCc2ccccc2)ccc1N` [Example 44, 4-Amino-3-methyl-1-phenethylpyridinium chloride], the IC50 is 1.1 µM in assay [1], 15.2 µM in the assay on SK-MEL-28 cells (setting [2]) and 105 µM with SK-MEL-28 cells (setting [3]).
Regarding `COc1cc(N)cc[n+]1Cc1ccccc1` [Example 45, 4-Amino-1-benzyl-2-methoxypyridinium chloride], the figures for the IC50 (in assay [1]; in the assay on SK-MEL-28 cells (setting [2]); in the assay on SK-MEL-28 cells (setting [3])) were 5 µM, 16.6 µM and 81.4 µM, respectively.
The matching figures for `Nc1cc[n+](CC2CCCCC2)cc1` [Example 46, 4-Amino-1-(cyclohexylmethyl)pyridinium bromide]: 0.8 µM, 7.9 µM and 49.6 µM.
As for `Nc1cc[n+](CC2CCC2)cc1` [Example 47, 4-Amino-1-(cyclobutylmethyl)pyridinium bromide], the figures for the IC50 (in assay [1]; with SK-MEL-28 cells (setting [2]); in the assay with SK-MEL-28 cells (setting [3])) were 5 µM, 20.3 µM and 167 µM, respectively.
Consider `Nc1cc[n+](CC2CCC2)c(F)c1` [Example 48, 4-Amino-1-(cyclobutylmethyl)-2-fluoropyridinium bromide], for which the IC50 in assay [1] turned out to be 0.8 µM; in the assay with SK-MEL-28 cells (setting [2]) it was 19.9 µM; with SK-MEL-28 cells (setting [3]) it was 46.3 µM.
Turning to `Nc1cc[n+](Cc2ccc(F)cc2)cc1` [Example 49, 4-Amino-1-(4-fluorobenzyl)pyridinium bromide], the results for the IC50 (in assay [1]; with SK-MEL-28 cells (setting [2]); in the assay with SK-MEL-28 cells (setting [3])) were 2.4 µM, 10.3 µM and 54.5 µM, respectively.
In the same order, the values of `c1ccc(C[n+]2ccc(N3CCOCC3)cc2)cc1` [Example 50, 1-Benzyl-4-morpholinopyridinium chloride] are 1 µM, 13.9 µM and 208 µM.
For the compound `c1ccc(CC[n+]2ccc(N3CCOCC3)cc2)cc1` [Example 51, 4-Morpholino-1-phenethylpyridinium chloride], the IC50 amounted to 3.1 µM in assay [1], 29.1 µM in the assay with SK-MEL-28 cells (setting [2]) and 201 µM in the assay with SK-MEL-28 cells (setting [3]).
As to `c1c[n+](CC2CC2)ccc1N1CCOCC1` [Example 52, 4-Morpholino-1-(cyclopropylmethyl)pyridinium chloride], the IC50 in assay [1] stood at 0.8 µM; in the assay on SK-MEL-28 cells (setting [2]), 40 µM; with SK-MEL-28 cells (setting [3]), 367 µM.
As to `c1c[n+](CCC2CCCCC2)ccc1N1CCOCC1` [Example 53, 1-(2-Cyclohexylethyl)-4-morpholinopyridinium bromide], the IC50 in assay [1] is 0.5 µM; in the assay with SK-MEL-28 cells (setting [2]), 8.7 µM; in the assay with SK-MEL-28 cells (setting [3]), 76.4 µM.
Regarding `c1ccc(C[n+]2ccc(N3CCCC3)cc2)cc1` [Example 54, 1-Benzyl-4-(pyrrolidin-1-yl)pyridinium chloride], the IC50 is 1.1 µM in assay [1], 3.4 µM with SK-MEL-28 cells (setting [2]) and 29.7 µM with SK-MEL-28 cells (setting [3]).
On to `c1ccc(CC[n+]2ccc(N3CCCC3)cc2)cc1` [Example 55, 1-Phenethyl-4-(pyrrolidin-1-yl)pyridinium chloride], for which the IC50 in assay [1] worked out at 3.1 µM; with SK-MEL-28 cells (setting [2]) it was 0.1 µM; in the assay with SK-MEL-28 cells (setting [3]) it was 45.9 µM.
Regarding `c1c[n+](CC2CC2)ccc1N1CCCC1` [Example 56, 1-(Cyclopropylmethyl)-4-(pyrrolidin-1-yl)pyridinium chloride], the IC50 was found to be 0.8 µM in assay [1], 4.4 µM with SK-MEL-28 cells (setting [2]) and 118 µM in the assay on SK-MEL-28 cells (setting [3]).
Consider `c1c[n+](CC2CCCCC2)ccc1N1CCCC1` [Example 57, 1-(Cyclohexylmethyl)-4-(pyrrolidin-1-yl)pyridinium bromide], for which the IC50 amounted to 0.5 µM in assay [1], 1.1 µM in the assay on SK-MEL-28 cells (setting [2]) and 23 µM with SK-MEL-28 cells (setting [3]).
In the same order, the values of `c1c[n+](CC2CCC2)ccc1N1CCCC1` [Example 58, 1-(Cyclobutylmethyl)-4-(pyrrolidin-1-yl)pyridinium chloride] are 2.5 µM, 3 µM and 93.9 µM.
On to `c1ccc(C[n+]2ccc(N3CCCCC3)cc2)cc1` [Example 59, 1-Benzyl-4-(piperidin-1-yl)pyridinium chloride], for which the IC50 in assay [1] turned out to be 2.8 µM; in the assay with SK-MEL-28 cells (setting [2]), 2.8 µM; in the assay with SK-MEL-28 cells (setting [3]), 33.4 µM.
Consider `c1ccc(C[n+]2ccc(N3CCCCCC3)cc2)cc1` [Example 60, 4-(Azepan-1-yl)-1-benzylpyridinium chloride], for which the IC50 in assay [1] worked out at 3.3 µM; in the assay on SK-MEL-28 cells (setting [2]), 20 µM; with SK-MEL-28 cells (setting [3]) it was 24.1 µM.
As to `CC(C)(C)CNc1cc[n+](Cc2ccccc2)cc1` [Example 61, 1-Benzyl-4-(neopentylamino)pyridinium chloride], the IC50 in assay [1] was 15.7 µM; in the assay on SK-MEL-28 cells (setting [2]) it was 1.5 µM.
With `c1c[n+](CC2CC2)cc2c1NCCC2` [Example 63, 6-(Cyclopropylmethyl)-1,2,3,4-tetrahydro-1,6-naphthyridin-6-ium chloride], the half-maximal inhibitory concentration (IC50) was found to be 7.1 µM in assay [1], 20.4 µM with SK-MEL-28 cells (setting [2]) and 208 µM with SK-MEL-28 cells (setting [3]).
For `c1c[n+](CC2CC2)cc2c1NCCO2` [Example 64, 6-(Cyclopropylmethyl)-2,3-dihydro-1H-pyrido[3,4-b][1,4]oxazin-6-ium chloride], the IC50 came out at 10.2 µM in assay [1], 21 µM in the assay with SK-MEL-28 cells (setting [2]) and 187 µM with SK-MEL-28 cells (setting [3]).
With `c1ccc(C[n+]2ccc(N3CCC3)cc2)cc1` [Example 66, 4-(Azetidin-1-yl)-1-benzylpyridinium chloride], the 50% inhibitory concentration (IC50) in assay [1] came to 5.2 µM; with SK-MEL-28 cells (setting [2]), 6.1 µM; with SK-MEL-28 cells (setting [3]), 77 µM.
